As a reminder, the IC50 is the point on the concentration scale where inhibition reaches its midpoint.

Chain of ALK2 (Q04771 21-509): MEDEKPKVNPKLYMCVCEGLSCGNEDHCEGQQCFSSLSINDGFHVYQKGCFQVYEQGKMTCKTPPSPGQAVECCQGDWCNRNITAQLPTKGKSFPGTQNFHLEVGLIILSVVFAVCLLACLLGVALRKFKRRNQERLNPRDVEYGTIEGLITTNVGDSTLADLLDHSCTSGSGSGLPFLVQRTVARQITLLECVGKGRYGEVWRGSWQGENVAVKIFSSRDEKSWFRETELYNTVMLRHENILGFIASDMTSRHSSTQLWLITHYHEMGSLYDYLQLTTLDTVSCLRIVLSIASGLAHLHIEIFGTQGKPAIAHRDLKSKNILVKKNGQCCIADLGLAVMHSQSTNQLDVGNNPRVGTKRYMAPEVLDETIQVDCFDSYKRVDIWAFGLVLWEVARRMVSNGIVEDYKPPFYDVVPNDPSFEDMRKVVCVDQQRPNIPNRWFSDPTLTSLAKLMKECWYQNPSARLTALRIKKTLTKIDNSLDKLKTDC

This test addresses ALK2 (Homo sapiens (Human), UniProt Q04771). Description: ALK2 inhibition, LanthaScreen Eu Kinase Binding Assay (ThermoFisher Scientific / Life Technologies). Conditions: read-out: Measured Ki (IC50) Value for Compounds: IC50. How it is done: Biochemical assays to measure the inhibitory effects of the compounds were performed by ThermoFisher Scientific (Life Technologies). ALK2 inhibition was tested using LanthaScreen™ Eu Kinase Binding Assay screening protocol.
(In TR-FRET formats the signal depends on donor and acceptor labels being close together.)
Take `COc1cc(-n2cnc(Nc3nc(N4CCC[C@H]4CO)nc4scnc34)c2)cc(OC)c1OC` [Compound 164a, (S)-(1-(7-((1-(3,4,5-trimethoxyphenyl)-1H-imidazol-4-yl)amino)thiazolo[5,4-d]pyrimidin-5-yl)pyrrolidin-2-yl)methanol]: the IC50 is less than 100 nM.
Then `COc1cc(-n2cnc(Nc3nc4c(c(N5CCC[C@H]5CO)n3)CCN(Cc3ccccc3)C4)c2)cc(OC)c1OC` [Compound 165b, (S)-(1-(7-benzyl-2-((1-(3,4,5-trimethoxyphenyl)-1H-imidazol-4-yl)amino)-5,6,7,8-tetrahydropyrido[3,4-d]pyrimidin-4-yl)pyrrolidin-2-yl)methanol], with less than 100 nM; and `COc1cc(-n2cnc(Nc3nc4c(c(N5CCC[C@H]5C(N)=O)n3)CCN(Cc3ccccc3)C4)c2)cc(OC)c1OC` [Compound 166b, (S)-1-(7-benzyl-2-((1-(3,4,5-trimethoxyphenyl)-1H-imidazol-4-yl)amino)-5,6,7,8-tetrahydropyrido[3,4-d]pyrimidin-4-yl)pyrrolidine-2-carboxamide], with less than 100 nM; and `COc1cc(-n2cnc(Nc3nc(N4CCC[C@H]4CO)nn4cccc34)c2)cc(C#N)c1OC` [Compound 167f, (S)-5-(4-((2-(2-(hydroxymethyl)pyrrolidin-1-yl)pyrrolo[2,1-f][1,2,4]triazin-4-yl)amino)-1H-imidazol-1-yl)-2,3-dimethoxybenzonitrile], with more than 1000 nM.
Then `COc1cc(-n2cnc(Nc3nc(N4CCCC4)c4cccn4n3)c2)cc(OC)c1OC` [Compound 168b, 4-(pyrrolidin-1-yl)-N-(1-(3,4,5-trimethoxyphenyl)-1H-imidazol-4-yl)pyrrolo[2,1-f][1,2,4]triazin-2-amine], with 100 to 1000 nM.
`COc1cc(-n2cnc(Nc3nc(N4CCC[C@H]4CO)nc4ncccc34)c2)cc(OC)c1OC` [Compound 169c, (S)-(1-(4-((1-(3,4,5-trimethoxyphenyl)-1H-imidazol-4-yl)amino)pyrido[2,3-d]pyrimidin-2-yl)pyrrolidin-2-yl)methanol]: the concentration for half-maximal inhibition (IC50) was less than 100 nM.
Then `COc1cc(-n2cnc(Nc3nc(N4CCC[C@H]4C(N)=O)nc4ncccc34)c2)cc(OC)c1OC` [Compound 170a, (S)-1-(4-((1-(3,4,5-trimethoxyphenyl)-1H-imidazol-4-yl)amino)pyrido[2,3-d]pyrimidin-2-yl)pyrrolidine-2-carboxamide], with less than 100 nM; and `COc1cc(-n2cnc(Nc3nc(N4CCC[C@H]4C(N)=O)nc4cc(OC(C)C)ccc34)c2)cc(OC)c1OC` [Compound 171a, (S)-1-(7-isopropoxy-4-((1-(3,4,5-trimethoxyphenyl)-1H-imidazol-4-yl)amino)quinazolin-2-yl)pyrrolidine-2-carboxamide], with less than 100 nM; and `OC[C@@H]1CCCN1c1nc(Nc2cn(-c3ccccc3)cn2)nn2cccc12` [Compound 172a, (S)-(1-(2-((1-phenyl-1H-imidazol-4-yl)amino)pyrrolo[2,1-f][1,2,4]triazin-4-yl)pyrrolidin-2-yl)methanol], with 100 to 1000 nM.
In the case of `COc1cc(-n2cnc(Nc3nc(N4CCC[C@H]4C(N)=O)c4ccn(S(=O)(=O)c5ccc(C)cc5)c4n3)c2)cc(OC)c1OC` [Compound 173b, (S)-1-(7-tosyl-2-((1-(3,4,5-trimethoxyphenyl)-1H-imidazol-4-yl)amino)-7H-pyrrolo[2,3-d]pyrimidin-4-yl)pyrrolidine-2-carboxamide], the IC50 is more than 1000 nM.
With `COc1cc(-n2cnc(Nc3nc(N4CCC[C@H]4C(N)=O)c4cc[nH]c4n3)c2)cc(OC)c1OC` [Compound 173c, (S)-1-(2-((1-(3,4,5-trimethoxyphenyl)-1H-imidazol-4-yl)amino)-7H-pyrrolo[2,3-d]pyrimidin-4-yl)pyrrolidine-2-carboxamide], the IC50 was less than 100 nM.
Take `COc1cc(-n2cnc(Nc3nc(N4CCC[C@H]4CO)c4cccnc4n3)c2)cc(OC)c1OC` [Compound 174b, (S)-(1-(2-((1-(3,4,5-trimethoxyphenyl)-1H-imidazol-4-yl)amino)pyrido[2,3-d]pyrimidin-4-yl)pyrrolidin-2-yl)methanol]: the IC50 is less than 100 nM.

(Values after patent US11661426B2, “Imidazole-containing inhibitors of ALK2 kinase” (BioCryst Pharmaceuticals, Inc., priority 2017, dated 2023).)
